Consider 14 compounds from patent publication US7812022B2 (GlaxoSmithKline LLC, priority 2004, dated 2010).

What is called IC50 is the concentration needed to halve the response being measured.

In experiment [1] the target is T1, ErbB2 or EGFR.
T1 construct: enzymes purified from a baculovirus expression system; Reagent production was conducted essentially as described in Brignola, P. S., et al, (2002) J. Biol. Chem. 277(2): 1576-1585
Kind of experiment: ErbB family substrate phosphorylation enzyme assay (HTRF), Method A or Method B. It counts as biochemical. In short, it runs like this: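 Baculovirus-expressed EGFR or ErbB2 (0.8 or 10 nM in enzyme mix) phosphorylates biotinylated Peptide C with 20 µM ATP and 0.8 µM peptide (substrate-mix levels), MnCl2, pH 7.5. Reaction ran 90 min at 20 °C with EDTA stop and HTRF anti-phosphotyrosine read. Method A: enzyme added last; Method B: 1 h enzyme–compound preincubation.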
A general note: In TR-FRET formats the signal depends on donor and acceptor labels being close together.

For experiment [2], the system named is BT474 and HN5 tumor cell lines. Kind of experiment: Methylene blue growth inhibition assay (cellular Method A). It counts as cell-based, Human. As to conditions: Homo sapiens, BT-474, 72 h, 3 days, read-out: Activity (Method): growth inhibition IC50 class. Summed up:
(§1)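 Growth inhibition measured by methylene blue staining of biomass (OD 620) after 3 days' compound exposure at 37° C, final DMSO 0.3%. Cell lines: BT474 (10,000/well), HN5 (3,000/well) and Colo205, all in DMEM with 10% FBS; IC50 fitted by nonlinear regression against vehicle-treated wells.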

In experiment [3] the test system is Colo205 tumor cell lines. Kind of experiment: Methylene blue growth inhibition assay (cellular Method A), Colo205. The class given is cell-based, Human. The following applies: Homo sapiens, COLO 205, 72 h, 3 days, read-out: Activity (Method): growth inhibition IC50 class. In short, it runs like this: as §1
Setting [4] is: Method B: enzyme mix pre-incubated with compound 1 hour at 20° C., started with substrate mix.
Where [5] appears, read: Method A: substrate mix added first, reaction started with enzyme mix.

Take `O=C(NC1CC1)c1ccc(Nc2nccc(-c3c(-c4cccc(NC(=O)c5c(F)cccc5F)c4)nn4ccccc34)n2)cc1` [Example 103, N-(3-{3-[2-({4-[(cyclopropylamino)carbonyl]phenyl}-amino)-4-pyrimidinyl]pyrazolo[1,5-a]pyridin-2-yl}phenyl)-2,6-difluorobenzamide]: the “Activity (Method): pIC50 class against ErbB2 or EGFR” value (“Activity (Method): pIC50 class” for short) in experiment [1] (setting [4]) is “+++ (B) (at least one pIC50 measurement of greater than 7 against either ErbB2 or EGFR)”. In addition, the results for the IC50 in experiment [2] and in experiment [3] were under 100 nM and 100 to 1000 nM, respectively.
The corresponding values for `O=C(Nc1cccc(-c2nn3ccccc3c2-c2ccnc(Nc3cccc(OCCN4CCOCC4)c3)n2)c1)c1c(F)cccc1F` [Example 60, 2,6-Difluoro-N-[3-(3-{2-[(3-{[2-(4-morpholinyl)ethyl]-oxy}phenyl)amino]-4-pyrimidinyl}pyrazolo[1,5-a]pyridin-2-yl)phenyl]benzamide] are “+++ (B) (at least one pIC50 measurement of greater than 7 against either ErbB2 or EGFR)”, under 100 nM and 100 to 1000 nM.
For `O=C(Nc1cccc(-c2nn3ccccc3c2-c2ccnc(Nc3ccc(OCCN4CCOCC4)c(Cl)c3)n2)c1)c1c(F)cccc1F` [Example 127, N-[3-(3-{2-[(3-Chloro-4-{[2-(4-morpholinyl)ethyl]-oxy}phenyl)amino]-4-pyrimidinyl}pyrazolo[1,5-a]pyridin-2-yl)phenyl]-2,6-difluorobenzamide], the “Activity (Method): pIC50 class” value in experiment [1] (setting [4]) is “+++ (B) (at least one pIC50 measurement of greater than 7 against either ErbB2 or EGFR)”. Also, the results for the 50% inhibitory concentration (IC50) in experiment [2] and in experiment [3] were under 100 nM and 100 to 1000 nM, respectively.
The corresponding values for `CN1CCC[C@H]1COc1ccc(Nc2nccc(-c3c(-c4cccc(NC(=O)c5c(F)cccc5F)c4)nn4ccccc34)n2)cc1F` [Example 132, 2,6-Difluoro-N-{3-[3-(2-{[3-fluoro-4-({[(2S)-1-methyl-2-pyrrolidinyl]methyl}oxy)phenyl]amino}-4-pyrimidinyl)pyrazolo[1,5-a]pyridin-2-yl]phenyl}benzamide] are “+++ (B) (at least one pIC50 measurement of greater than 7 against either ErbB2 or EGFR)”, under 100 nM and under 100 nM.
On to `CN(C)CCCNc1ccc(Nc2nccc(-c3c(-c4cccc(NC(=O)c5c(F)cccc5F)c4)nn4ccccc34)n2)cc1F` [Example 41, N-[3-(3-{2-[(4-{[3-(dimethylamino)propyl]amino}-3-fluorophenyl)amino]-4-pyrimidinyl}pyrazolo[1,5-a]pyridin-2-yl)phenyl]-2,6-difluorobenzamide], for which, in experiment [1] (setting [4]), the “Activity (Method): pIC50 class” value was “+++ (B) (at least one pIC50 measurement of greater than 7 against either ErbB2 or EGFR)”. The IC50 was under 100 nM in experiment [2] and 100 to 1000 nM in experiment [3].
For the compound `Cc1ccc(F)cc1C(=O)Nc1cccc(-c2nn3ccccc3c2-c2ccnc(Nc3cccc(F)c3)n2)c1` [Example 83, 5-Fluoro-N-[3-(3-{2-[(3-fluorophenyl)amino]-4-pyrimidinyl}pyrazolo[1,5-a]pyridin-2-yl)phenyl]-2-methylbenzamide], the “Activity (Method): pIC50 class” value in experiment [1] (setting [5]) is listed as “++ (A) (at least one pIC50 measurement greater than 6 against either ErbB2 or EGFR but no measurement greater than pIC50 of 7)”. Moreover, the IC50 in experiment [2] was 100 to 1000 nM; in experiment [3] it was over 1000 nM.
As to `CCN(CC)CCCOc1ccc(Nc2nccc(-c3c(-c4cccc(NC(=O)c5c(F)cccc5F)c4)nn4ccccc34)n2)cc1F` [Example 131, N-[3-(3-{2-[(4-{[3-(Diethylamino)propyl]oxy}-3-fluorophenyl)amino]-4-pyrimidinyl}pyrazolo[1,5-a]pyridin-2-yl)phenyl]-2,6-difluorobenzamide], the “Activity (Method): pIC50 class” value in experiment [1] (setting [4]) is on record as “+++ (B) (at least one pIC50 measurement of greater than 7 against either ErbB2 or EGFR)”. Besides, the IC50 in experiment [2] is under 100 nM; in experiment [3], 100 to 1000 nM.
In the same order, the values of `CN(C)Cc1ccc(Nc2nccc(-c3c(-c4cccc(NC(=O)c5c(F)cccc5F)c4)nn4ccccc34)n2)cc1` [Example 108, N-(3-{3-[2-({4-[(Dimethylamino)methyl]phenyl}-amino)-4-pyrimidinyl]pyrazolo[1,5-a]pyridin-2-yl}phenyl)-2,6-difluorobenzamide] are “+++ (B) (at least one pIC50 measurement of greater than 7 against either ErbB2 or EGFR)”, under 100 nM and under 100 nM.
For the compound `CN(C)CCOc1cccc(Nc2nccc(-c3c(-c4cccc(NC(=O)c5c(F)cccc5F)c4)nn4ccccc34)n2)c1` [Example 61, N-[3-(3-{2-[(3-{[2-(Dimethylamino)ethyl]oxy}-phenyl)amino]-4-pyrimidinyl}pyrazolo[1,5-a]pyridin-2-yl)phenyl]-2,6-difluorobenzamide], the “Activity (Method): pIC50 class” value in experiment [1] (setting [4]) is recorded as “+++ (B) (at least one pIC50 measurement of greater than 7 against either ErbB2 or EGFR)”. Further, the IC50 is under 100 nM in experiment [2] and 100 to 1000 nM in experiment [3].
The corresponding values for `NS(=O)(=O)c1cccc(Nc2nccc(-c3c(-c4cccc(NC(=O)c5c(F)cccc5F)c4)nn4ccccc34)n2)c1` [Example 118, N-{3-[3-(2-{[3-(aminosulfonyl)phenyl]amino}-4-pyrimidinyl)pyrazolo[1,5-a]pyridin-2-yl]phenyl}-2,6-difluorobenzamide] are “+++ (B) (at least one pIC50 measurement of greater than 7 against either ErbB2 or EGFR)”, under 100 nM and 100 to 1000 nM.
The corresponding values for `Cn1cncc1C(=O)Nc1cccc(-c2nn3ccccc3c2-c2ccnc(Nc3cccc(F)c3)n2)c1` [Example 84, N-[3-(3-{2-[(3-fluorophenyl)amino]-4-pyrimidinyl}-pyrazolo[1,5-a]pyridin-2-yl)phenyl]-1-methyl-1H-imidazole-5-carboxamide] are “+++ (B) (at least one pIC50 measurement of greater than 7 against either ErbB2 or EGFR)”, over 1000 nM and over 1000 nM.
As to `COc1cccc(C(=O)Nc2cccc(-c3nn4ccccc4c3-c3ccnc(Nc4ccc5c(c4)OCCO5)n3)c2)c1` [Example 5, N-(3-{3-[2-(2,3-Dihydro-benzo[1,4]dioxin-6-ylamino)-pyrimidin-4-yl]-pyrazolo[1,5]-pyridin-2-yl}-phenyl)-3-methoxy-benzamide], in experiment [1] (setting [5]), the “Activity (Method): pIC50 class” value is given as “+++ (A) (at least one pIC50 measurement of greater than 7 against either ErbB2 or EGFR)”. Further, the IC50 in experiment [2] is 100 to 1000 nM; in experiment [3] it was over 1000 nM.
As to `CN(C)CCCOc1cccc(Nc2nccc(-c3c(-c4cccc(NC(=O)c5c(F)cccc5F)c4)nn4ccccc34)n2)c1` [Example 198, N-[3-(3-{2-[(3-{[3-(dimethylamino)propyl]oxy}phenyl)amino]-4-pyrimidinyl}pyrazolo[1,5-a]pyridin-2-yl)phenyl]-2,6-difluorobenzamide], the “Activity (Method): pIC50 class” value in experiment [1] (setting [4]) is given as “+++ (B) (at least one pIC50 measurement of greater than 7 against either ErbB2 or EGFR)”. Moreover, the 50% inhibitory concentration (IC50) in experiment [2] is under 100 nM; in experiment [3], 100 to 1000 nM.
Consider `CN1CCN(c2ccc(Nc3nccc(-c4c(-c5cccc(NC(=O)c6c(F)cccc6F)c5)nn5ccccc45)n3)cc2)CC1` [Example 91], for which the “Activity (Method): pIC50 class” value in experiment [1] (setting [4]) was “+++ (B) (at least one pIC50 measurement of greater than 7 against either ErbB2 or EGFR)”. The half-inhibitory concentration (IC50) in experiment [2] was under 100 nM; in experiment [3], 100 to 1000 nM.
